Data as given in PubChem BioAssay AID1963871 (Molecular Pharmacology Branch, DTP, NCI, 2024).

System: KRAS-mutant PDC multicell tumor spheroid viability
Experiment: Anticancer human tumor 521955-158-R2-J5-PDC patient-derived pancreatic carcinoma cell line growth inhibition [KRAS2]
Details: for IC50: curve of first compound; for viability, T/C: stronger effect = lower value
In short: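 Combination screen of spheroid viability in tumor-cell co-cultures with endothelial (HUVEC) and mesenchymal stem cell stroma. Each agent was tested in half-log dilutions, topping at clinical Cmax or at 10 microM without a known Cmax.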

[1] = second compound 0.1 µM, first compound 0.0316 µM
[2] = second compound 0.1 µM, first compound 0.1 µM
[3] = second compound 0.1 µM, first compound 0.316 µM
[4] = second compound 0.1 µM, first compound 1 µM
[5] = second compound 0.1 µM, first compound 3.16 µM
[6] = second compound 0.316 µM, first compound 0.0316 µM
[7] = second compound 0.316 µM, first compound 0.1 µM
[8] = second compound 0.316 µM, first compound 0.316 µM
[9] = second compound 0.316 µM, first compound 1 µM
[10] = second compound 0.316 µM, first compound 3.16 µM
[11] = second compound 1 µM, first compound 0.0316 µM
[12] = second compound 1 µM, first compound 0.1 µM
[13] = second compound 1 µM, first compound 0.316 µM
[14] = second compound 1 µM, first compound 1 µM
[15] = second compound 1 µM, first compound 3.16 µM
[16] = second compound 3.16 µM, first compound 0.0316 µM
[17] = second compound 3.16 µM, first compound 0.1 µM
[18] = second compound 3.16 µM, first compound 0.316 µM
[19] = second compound 3.16 µM, first compound 1 µM
[20] = second compound 3.16 µM, first compound 3.16 µM
[21] = second compound 10 µM, first compound 0.0316 µM
[22] = second compound 10 µM, first compound 0.1 µM
[23] = second compound 10 µM, first compound 0.316 µM
[24] = second compound 10 µM, first compound 1 µM
[25] = second compound 10 µM, first compound 3.16 µM
[26] = second compound 0.1 µM, first compound 10 µM
[27] = second compound 0.316 µM, first compound 10 µM
[28] = second compound 1 µM, first compound 10 µM
[29] = second compound 3.16 µM, first compound 10 µM
[30] = second compound 10 µM, first compound 10 µM
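Note: viability read after seven days of drug exposure.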

CC1COCCN1c1cc(-c2ccnn2C)c2ccnc(-c3ccn[nH]3)c2n1 (stereo not given) + CNCc1ccccc1-c1csc(C(C)Nc2nc(C)nc3cc(OC)c(OC)cc23)c1
IC50 (second compound 0.1 µM): 30.5 nM | IC50 (second compound 0.316 µM): 23.8 nM | IC50 (second compound 1 µM): 22.1 nM | IC50 (second compound 3.16 µM): < 10 nM | IC50 (second compound 10 µM): < 10 nM | viability, T/C (second compound 0.1 µM, first compound 0.01 µM): 101% | viability, T/C [1]: 48.3% | viability, T/C [2]: 11.4% | viability, T/C [3]: 13.6% | viability, T/C [4]: 20.8% | viability, T/C [5]: 29.5% | viability, T/C (second compound 0.316 µM, first compound 0.01 µM): 95.9% | viability, T/C [6]: 35% | viability, T/C [7]: 12.4% | viability, T/C [8]: 11.7% | viability, T/C [9]: 20.7% | viability, T/C [10]: 25.9% | viability, T/C (second compound 1 µM, first compound 0.01 µM): 105% | viability, T/C [11]: 25.3% | viability, T/C [12]: 8.4% | viability, T/C [13]: 11.7% | viability, T/C [14]: 21.2% | viability, T/C [15]: 22.9% | viability, T/C (second compound 3.16 µM, first compound 0.01 µM): 0.3% | viability, T/C [16]: 0.11% | viability, T/C [17]: 0.07% | viability, T/C [18]: 0.06% | viability, T/C [19]: 0.08% | viability, T/C [20]: 0.33% | viability, T/C (second compound 10 µM, first compound 0.01 µM): 0.14% | viability, T/C [21]: 0.15% | viability, T/C [22]: 0.13% | viability, T/C [23]: 0.13% | viability, T/C [24]: 0.12% | viability, T/C [25]: 0.22%

CC1OCC2(CCN(c3cnc(Sc4ccnc(N)c4Cl)c(N)n3)CC2)C1N (stereo not given) + CNCc1ccccc1-c1csc(C(C)Nc2nc(C)nc3cc(OC)c(OC)cc23)c1
IC50 (second compound 0.1 µM): > 10000 nM | IC50 (second compound 0.316 µM): > 10000 nM | IC50 (second compound 1 µM): > 10000 nM | IC50 (second compound 3.16 µM): < 31.6 nM | IC50 (second compound 10 µM): < 31.6 nM | viability, T/C [1]: 86.5% | viability, T/C [2]: 83.1% | viability, T/C [3]: 85.6% | viability, T/C [4]: 74.4% | viability, T/C [5]: 67% | viability, T/C [26]: 70.7% | viability, T/C [6]: 90.2% | viability, T/C [7]: 85.2% | viability, T/C [8]: 68.5% | viability, T/C [9]: 77.3% | viability, T/C [10]: 75.4% | viability, T/C [27]: 73.1% | viability, T/C [11]: 90.6% | viability, T/C [12]: 83.5% | viability, T/C [13]: 76.8% | viability, T/C [14]: 70% | viability, T/C [15]: 68.4% | viability, T/C [28]: 75% | viability, T/C [16]: 0.27% | viability, T/C [17]: 0.18% | viability, T/C [18]: 0.19% | viability, T/C [19]: 0.2% | viability, T/C [20]: 0.36% | viability, T/C [29]: 0.31% | viability, T/C [21]: 0.15% | viability, T/C [22]: 0.14% | viability, T/C [23]: 0.15% | viability, T/C [24]: 0.13% | viability, T/C [25]: 0.14% | viability, T/C [30]: 0.21%

CCNC(=O)CC1N=C(c2ccc(Cl)cc2)c2cc(OC)ccc2-n2c(C)nnc21 (stereo not given) + CNCc1ccccc1-c1csc(C(C)Nc2nc(C)nc3cc(OC)c(OC)cc23)c1
IC50 (second compound 0.1 µM): 509 nM | IC50 (second compound 0.316 µM): 388 nM | IC50 (second compound 1 µM): 360 nM | IC50 (second compound 3.16 µM): < 31.6 nM | IC50 (second compound 10 µM): < 31.6 nM | viability, T/C [1]: 108% | viability, T/C [2]: 87.9% | viability, T/C [3]: 56.1% | viability, T/C [4]: 41.4% | viability, T/C [5]: 32% | viability, T/C [26]: 31.4% | viability, T/C [6]: 105% | viability, T/C [7]: 93% | viability, T/C [8]: 53.3% | viability, T/C [9]: 34.3% | viability, T/C [10]: 28.6% | viability, T/C [27]: 30.6% | viability, T/C [11]: 99% | viability, T/C [12]: 92.2% | viability, T/C [13]: 51.8% | viability, T/C [14]: 34.9% | viability, T/C [15]: 32.5% | viability, T/C [28]: 31.3% | viability, T/C [16]: 0.37% | viability, T/C [17]: 0.16% | viability, T/C [18]: 0.27% | viability, T/C [19]: 0.08% | viability, T/C [20]: 0.08% | viability, T/C [29]: 0.19% | viability, T/C [21]: 0.15% | viability, T/C [22]: 0.14% | viability, T/C [23]: 0.12% | viability, T/C [24]: 0.8% | viability, T/C [25]: 0.13% | viability, T/C [30]: 0.36%

Cn1nccc1Nc1nccc(-c2cc3c(s2)C(C)(C)N(CCN2CCOCC2)C3=O)n1 + CNCc1ccccc1-c1csc(C(C)Nc2nc(C)nc3cc(OC)c(OC)cc23)c1
IC50 (second compound 0.1 µM): 1050 nM | IC50 (second compound 0.316 µM): 784 nM | IC50 (second compound 1 µM): 913 nM | IC50 (second compound 3.16 µM): < 31.6 nM | IC50 (second compound 10 µM): < 31.6 nM | viability, T/C [1]: 99.7% | viability, T/C [2]: 84.2% | viability, T/C [3]: 60.7% | viability, T/C [4]: 54.2% | viability, T/C [5]: 36.5% | viability, T/C [26]: 18% | viability, T/C [6]: 98.3% | viability, T/C [7]: 81.4% | viability, T/C [8]: 60.9% | viability, T/C [9]: 49.6% | viability, T/C [10]: 29.4% | viability, T/C [27]: 18.3% | viability, T/C [11]: 103% | viability, T/C [12]: 100% | viability, T/C [13]: 71.9% | viability, T/C [14]: 47.7% | viability, T/C [15]: 22.3% | viability, T/C [28]: 0.54% | viability, T/C [16]: 0.21% | viability, T/C [17]: 0.22% | viability, T/C [18]: 0.19% | viability, T/C [19]: 0.51% | viability, T/C [20]: 0.08% | viability, T/C [29]: 0.36% | viability, T/C [21]: 0.11% | viability, T/C [22]: 0.15% | viability, T/C [23]: 0.14% | viability, T/C [24]: 0.14% | viability, T/C [25]: 0.19% | viability, T/C [30]: 0.2%
